System: 843782-103-R-J1-PDC complex spheroid viability
Assay: Anticancer human tumor 843782-103-R-J1-PDC patient-derived lung adenocarcinoma cell line growth inhibition [RAS]
Settings: for viability, T/C: stronger effect = lower value
Procedure, shortened: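 Agents were tested in combination matrices in half-log decrements from a top concentration at or near clinical Cmax (10 microM if undetermined). Targets were multi-cell spheroids of tumour lines plus HUVEC and MSC stromal cells.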
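Note: viability read after seven days of compound exposure.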

For CCn1c(-c2cc(N3CCN(C)CC3)cnc2C(C)OC)c2c3cc(ccc31)-c1csc(n1)CC(NC(=O)C1CC1C)C(=O)N1CCCC(N1)C(=O)OCC(C)(C)C2 (stereo unspecified), the viability, T/C (compound 0.000949 µM) was 85.8% [middle of 8 runs], the viability, T/C (compound 0.003 µM) was 65.7% [middle of 8 runs] and the viability, T/C (compound 0.00949 µM) was 37.1% [middle of 8 runs]. For the same compound, the viability, T/C (compound 0.03 µM) was 22.4% [middle of 8 runs], the viability, T/C (compound 0.0949 µM) was 17.1% [middle of 8 runs] and the viability, T/C (compound 0.3 µM) was 14.2% [middle of 8 runs]. The IC50 (compound alone, run of 08/26/2024) was 5.72 nM [middle of 8 runs].

Compound C[C@@H](NC(=O)c1ncnc(N)c1Cl)c1ncc(C(=O)Nc2cc(C(F)(F)F)c(Cl)cn2)s1 + CCn1c(-c2cc(N3CCN(C)CC3)cnc2C(C)OC)c2c3cc(ccc31)-c1csc(n1)CC(NC(=O)C1CC1C)C(=O)N1CCCC(N1)C(=O)OCC(C)(C)C2 has an IC50 (curve of first compound, second compound 0.000949 µM) greater than 10000 nM, an IC50 (curve of first compound, second compound 0.003 µM) greater than 10000 nM and an IC50 (curve of first compound, second compound 0.00949 µM) of less than 31.6 nM. For the same compound, the IC50 (curve of first compound, second compound 0.03 µM) was less than 31.6 nM, the IC50 (curve of first compound, second compound 0.0949 µM) was less than 31.6 nM and the IC50 (curve of first compound, second compound 0.3 µM) was less than 31.6 nM. The viability, T/C (second compound 0.000949 µM, first compound 0.0316 µM) was 84.4%, the viability, T/C (second compound 0.000949 µM, first compound 0.1 µM) was 78.1% and the viability, T/C (second compound 0.000949 µM, first compound 0.316 µM) was 85.8%. For the same compound, the viability, T/C (second compound 0.000949 µM, first compound 1 µM) was 79.6%, the viability, T/C (second compound 0.000949 µM, first compound 3.16 µM) was 89.8% and the viability, T/C (second compound 0.000949 µM, first compound 10 µM) was 84.3%. For the same compound, the viability, T/C (second compound 0.003 µM, first compound 0.0316 µM) was 68.9%, the viability, T/C (second compound 0.003 µM, first compound 0.1 µM) was 70% and the viability, T/C (second compound 0.003 µM, first compound 0.316 µM) was 67.5%. It also gave a viability, T/C (second compound 0.003 µM, first compound 1 µM) of 68.6%, a viability, T/C (second compound 0.003 µM, first compound 3.16 µM) of 74.6% and a viability, T/C (second compound 0.003 µM, first compound 10 µM) of 64.7%. The viability, T/C (second compound 0.00949 µM, first compound 0.0316 µM) was 41%, the viability, T/C (second compound 0.00949 µM, first compound 0.1 µM) was 51.6% and the viability, T/C (second compound 0.00949 µM, first compound 0.316 µM) was 48.4%. For the same compound, the viability, T/C (second compound 0.00949 µM, first compound 1 µM) was 44%, the viability, T/C (second compound 0.00949 µM, first compound 3.16 µM) was 53.6% and the viability, T/C (second compound 0.00949 µM, first compound 10 µM) was 48.2%. It also gave a viability, T/C (second compound 0.03 µM, first compound 0.0316 µM) of 22.9%, a viability, T/C (second compound 0.03 µM, first compound 0.1 µM) of 26.2% and a viability, T/C (second compound 0.03 µM, first compound 0.316 µM) of 28.8%. The viability, T/C (second compound 0.03 µM, first compound 1 µM) was 32.5%, the viability, T/C (second compound 0.03 µM, first compound 3.16 µM) was 34.7% and the viability, T/C (second compound 0.03 µM, first compound 10 µM) was 33.4%. For the same compound, the viability, T/C (second compound 0.0949 µM, first compound 0.0316 µM) was 19.8%, the viability, T/C (second compound 0.0949 µM, first compound 0.1 µM) was 18.8% and the viability, T/C (second compound 0.0949 µM, first compound 0.316 µM) was 19.8%. It also gave a viability, T/C (second compound 0.0949 µM, first compound 1 µM) of 21.6%, a viability, T/C (second compound 0.0949 µM, first compound 3.16 µM) of 24.3% and a viability, T/C (second compound 0.0949 µM, first compound 10 µM) of 23.7%. The viability, T/C (second compound 0.3 µM, first compound 0.0316 µM) was 15.4%, the viability, T/C (second compound 0.3 µM, first compound 0.1 µM) was 15.6% and the viability, T/C (second compound 0.3 µM, first compound 0.316 µM) was 19.1%. The viability, T/C (second compound 0.3 µM, first compound 1 µM) was 17.5%, the viability, T/C (second compound 0.3 µM, first compound 3.16 µM) was 19.6% and the viability, T/C (second compound 0.3 µM, first compound 10 µM) was 18.6%.

For CCn1c(-c2cccnc2C(C)OC)c2c3cc(ccc31)N1CCOC(CC(NC(=O)C(C(C)C)N(C)C(=O)C3(F)CCN(C(=O)C#CC(C)(C)N(C)C)CC3)C(=O)N3CCCC(N3)C(=O)OCC(C)(C)C2)C1 (stereo unspecified), the viability, T/C (compound 0.000949 µM) was 82.9% [middle of 8 runs], the viability, T/C (compound 0.003 µM) was 80.1% [middle of 8 runs] and the viability, T/C (compound 0.00949 µM) was 79.1% [middle of 8 runs]. The viability, T/C (compound 0.03 µM) was 75.8% [middle of 8 runs], the viability, T/C (compound 0.0949 µM) was 68.4% [middle of 8 runs] and the viability, T/C (compound 0.3 µM) was 67.3% [middle of 8 runs]. The IC50 (compound alone, run of 08/20/2024) was greater than 300 nM.

Reference: PubChem BioAssay AID2060883 (Molecular Pharmacology Branch, DTP, NCI, 2025)
